Data as given in ChEMBL document CHEMBL1201862, “PubChem BioAssay data set” (2004).
Where a name gives a salt, the structure may show the parent alone.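 A five-concentration, 48-hour dose response in 96-well plates underlies each endpoint, interpolated linearly between surrounding concentrations. Here, GI50 denotes the concentration required for 50% inhibition of growth.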 Calls of active or inactive are those of the source. No stated cut-off is given here; in the data, active = GI50 up to about 1.1 µM and inactive = higher.

Columns and labels:
Assay in all cases: DTP human tumour cell line panel, 48 h
[1] = system: A498
[2] = system: ACHN
[3] = system: BT-549
[4] = system: CAKI-1
[5] = system: CCRF-CEM
[6] = system: HCT-116
[7] = system: HCT-15
[8] = system: MCF7
[9] = system: MDA-MB-231
[10] = system: MDA-MB-435
[11] = system: NCI/ADR-RES
[12] = system: OVCAR-8
[13] = system: PC-3
[14] = system: RXF 393
[15] = system: SF-539
[16] = system: SK-MEL-5
[17] = system: UACC-257
[18] = system: UACC-62
[19] = system: K562
[20] = system: LOX IMVI

Compound	GI50 [1]	GI50 [2]	GI50 [3]	GI50 [4]	GI50 [5]	GI50 [6]	GI50 [7] [µM]	GI50 [8]	GI50 [9]	GI50 [10]	GI50 [11]	GI50 [12]	GI50 [13]	GI50 [14]	GI50 [15]	GI50 [16]	GI50 [17]	GI50 [18]	GI50 [19]	GI50 [20]
COc1cc2c(cc1OC)C1C(O)C(OC)C=C3CC[N+](C)(C2)C31 (stereo not drawn)	> 100 µM (inactive)	> 100 µM (inactive)	> 100 µM (inactive)	> 100 µM (inactive)	> 100 µM (inactive)	> 100 µM (inactive)	> 100	> 100 µM (inactive)	> 100 µM (inactive)	> 100 µM (inactive)	> 100 µM (inactive)	> 100 µM (inactive)	> 100 µM (inactive)	> 100 µM (inactive)	> 100 µM (inactive)	> 100 µM (inactive)	> 100 µM (inactive)	> 100 µM (inactive)	–	–
CC(NC(=O)c1ccc(OP(=O)(OCc2ccc([N+](=O)[O-])o2)N(C)CCCCCl)cc1)c1ccc(OCC2CCCCC2)c(C(N)=O)c1 (stereo not drawn)	12.9 µM (inactive)	3.93 µM (inactive)	2.36 µM (inactive)	12.4 µM (inactive)	–	2.88 µM (inactive)	2.45	2.77 µM (inactive)	2.58 µM (inactive)	2.38 µM (inactive)	> 36.6 µM (inactive)	4.49 µM (inactive)	3.44 µM (inactive)	2.25 µM (inactive)	2.56 µM (inactive)	1.66 µM (inactive)	3.87 µM (inactive)	2.29 µM (inactive)	2.42 µM (inactive)	1.87 µM (inactive)
CCCCCCCCCCCCCCCCOP(=O)([O-])OCC[N+](C)(C)C1CC(C)(C)N(O)C(C)(C)C1	> 100 µM (inactive)	> 100 µM (inactive)	> 100 µM (inactive)	> 100 µM (inactive)	–	> 100 µM (inactive)	> 100	> 100 µM (inactive)	> 100 µM (inactive)	> 100 µM (inactive)	> 100 µM (inactive)	> 100 µM (inactive)	> 100 µM (inactive)	> 100 µM (inactive)	> 100 µM (inactive)	> 100 µM (inactive)	> 100 µM (inactive)	> 100 µM (inactive)	–	–
N#CC12C(=O)N3C(=NC(c4ccccc4)NC3c3ccccc3)C1(C#N)C(c1ccccc1)NC1=C2CCCC1 (stereo not drawn)	> 100 µM (inactive)	> 100 µM (inactive)	> 100 µM (inactive)	> 100 µM (inactive)	30.3 µM (inactive)	> 100 µM (inactive)	> 100	> 100 µM (inactive)	> 100 µM (inactive)	> 100 µM (inactive)	> 100 µM (inactive)	> 100 µM (inactive)	> 100 µM (inactive)	> 100 µM (inactive)	–	> 100 µM (inactive)	> 100 µM (inactive)	> 100 µM (inactive)	> 100 µM (inactive)	> 100 µM (inactive)
O=C1Nc2ccccc2/C1=C1\C(=O)Nc2ccccc21 [ISOINDIGO]	20.9 µM (inactive)	12.6 µM (inactive)	25.6 µM (inactive)	19.7 µM (inactive)	2.9 µM (inactive)	17 µM (inactive)	3.84	4.52 µM (inactive)	27.8 µM (inactive)	11.9 µM (inactive)	17.3 µM (inactive)	18.8 µM (inactive)	9.75 µM (inactive)	3.56 µM (inactive)	–	59.7 µM (inactive)	31.1 µM (inactive)	17.3 µM (inactive)	7.48 µM (inactive)	18.6 µM (inactive)
C(=N\Nc1nnc(-c2nnc(N/N=C/c3ccccc3)o2)o1)/c1ccccc1	> 10 µM (inactive)	> 10 µM (inactive)	> 10 µM (inactive)	> 10 µM (inactive)	> 10 µM (inactive)	> 10 µM (inactive)	> 10	> 10 µM (inactive)	> 10 µM (inactive)	> 10 µM (inactive)	> 10 µM (inactive)	> 10 µM (inactive)	> 10 µM (inactive)	> 10 µM (inactive)	> 10 µM (inactive)	> 10 µM (inactive)	> 10 µM (inactive)	> 10 µM (inactive)	> 10 µM (inactive)	–
COCO[C@@H]1C[C@H]2C(=O)Nc3ccccc3C(=O)N2C1	38.5 µM (inactive)	50.6 µM (inactive)	35.3 µM (inactive)	36 µM (inactive)	–	85.3 µM (inactive)	> 100	54.1 µM (inactive)	> 100 µM (inactive)	53.7 µM (inactive)	79.1 µM (inactive)	> 100 µM (inactive)	43.8 µM (inactive)	20.6 µM (inactive)	38.7 µM (inactive)	24.1 µM (inactive)	> 100 µM (inactive)	> 100 µM (inactive)	–	29.2 µM (inactive)
NC(CC(=O)Nc1cc(C(F)(F)F)ccc1Cl)=NO	> 100 µM (inactive)	> 100 µM (inactive)	> 100 µM (inactive)	> 100 µM (inactive)	–	> 100 µM (inactive)	> 100	> 100 µM (inactive)	> 100 µM (inactive)	> 100 µM (inactive)	> 100 µM (inactive)	> 100 µM (inactive)	> 100 µM (inactive)	> 100 µM (inactive)	> 100 µM (inactive)	> 100 µM (inactive)	> 100 µM (inactive)	> 100 µM (inactive)	> 100 µM (inactive)	> 100 µM (inactive)
CN(C)CCC=C1c2ccccc2C=Cc2ccccc21 [CYCLOBENZAPRINE HYDROCHLORIDE]	15.8 µM (inactive)	17.2 µM (inactive)	17.4 µM (inactive)	17 µM (inactive)	–	15 µM (inactive)	17.7	16.3 µM (inactive)	17.3 µM (inactive)	16.7 µM (inactive)	16.3 µM (inactive)	16 µM (inactive)	16.6 µM (inactive)	14.5 µM (inactive)	–	14 µM (inactive)	14.8 µM (inactive)	16.6 µM (inactive)	18.5 µM (inactive)	16.7 µM (inactive)
O=C(O)C(Cc1c[nH]cn1)N1C(=O)c2ccccc2C1=O (stereo not drawn)	> 100 µM (inactive)	> 100 µM (inactive)	> 100 µM (inactive)	> 100 µM (inactive)	–	> 100 µM (inactive)	> 100	> 100 µM (inactive)	38 µM (inactive)	> 100 µM (inactive)	> 100 µM (inactive)	> 100 µM (inactive)	18.9 µM (inactive)	> 100 µM (inactive)	–	> 100 µM (inactive)	> 100 µM (inactive)	> 100 µM (inactive)	> 100 µM (inactive)	> 100 µM (inactive)
O=c1cc(CSc2c(-c3ccccc3)c(=O)n(-c3ccccc3)c(=S)n2-c2ccccc2)[nH]c(=O)[nH]1	> 100 µM (inactive)	> 100 µM (inactive)	> 100 µM (inactive)	> 100 µM (inactive)	> 100 µM (inactive)	> 100 µM (inactive)	> 100	> 100 µM (inactive)	> 100 µM (inactive)	> 100 µM (inactive)	> 100 µM (inactive)	> 100 µM (inactive)	> 100 µM (inactive)	> 100 µM (inactive)	> 100 µM (inactive)	> 100 µM (inactive)	> 100 µM (inactive)	> 100 µM (inactive)	> 100 µM (inactive)	–
